Experimental data as given in PMC4513294, “L-Asparaginase from Streptomyces griseus NIOT-VKMA29: optimization of process variables using factorial designs and molecular characterization of L-asparaginase gene” (Scientific Reports, 2015).

Target: T1, L-asparaginase (ansA) (Streptomyces griseus, UniProt Q54237)
T1 construct: gene orf4; full-length ORF (987 bp, 328 residues, 33721 Da) in pQE30, expressed in E. coli M15(pREP4); unpurified expressed cells; 34 kDa band on SDS-PAGE
T1 sequence (Q54237 1-328): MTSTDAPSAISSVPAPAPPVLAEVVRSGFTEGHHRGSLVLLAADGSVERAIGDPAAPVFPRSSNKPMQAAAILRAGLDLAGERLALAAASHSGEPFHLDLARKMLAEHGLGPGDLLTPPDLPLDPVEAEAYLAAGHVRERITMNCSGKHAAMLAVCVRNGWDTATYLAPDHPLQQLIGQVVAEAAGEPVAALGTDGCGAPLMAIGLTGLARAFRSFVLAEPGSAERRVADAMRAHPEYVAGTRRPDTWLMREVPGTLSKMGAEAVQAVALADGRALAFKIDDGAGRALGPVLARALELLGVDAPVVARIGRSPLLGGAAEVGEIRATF
Assay: ammonia release, Nesslerization
Assay type: cell-based
Settings: recombinant E. coli M15 expressed cells compared with control cells; host background activity present

For `NC(=O)C[C@H](N)C(=O)O` [L-asparagine], the “ammonia release, Nesslerization” value was “The expression of asparaginase biosynthetic gene was confirmed by Nesslerization assay”.
